Data: PubChem BioAssay (NCI)
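Grown in 96-well plates, cells were treated for 48 hours with each compound at five concentrations. Insufficient inhibition: endpoint recorded as highest concentration tested. TGI is the concentration that stops growth completely.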

Legend:
Test in all cases: NCI-60 cell line screen, 48 h
SK-MEL-5 melanoma = test system: SK-MEL-5 melanoma
HOP-18 NSCLC = test system: HOP-18 NSCLC
SNB-78 CNS = test system: SNB-78 CNS
LXFL 529 NSCLC = test system: LXFL 529 NSCLC
KM20L2 colon = test system: KM20L2 colon
SF-295 CNS = test system: SF-295 CNS
DMS 273 small cell lung = test system: DMS 273 small cell lung
IGROV1 ovarian = test system: IGROV1 ovarian
XF 498 CNS = test system: XF 498 CNS
M19-MEL melanoma = test system: M19-MEL melanoma
DLD-1 colon = test system: DLD-1 colon
ACHN renal = test system: ACHN renal
DMS 114 small cell lung = test system: DMS 114 small cell lung

Compound	TGI (SK-MEL-5 melanoma)	TGI (HOP-18 NSCLC)	TGI (SNB-78 CNS)	TGI (LXFL 529 NSCLC)	TGI (KM20L2 colon)	TGI (SF-295 CNS)	TGI (DMS 273 small cell lung)	TGI (IGROV1 ovarian)	TGI (XF 498 CNS)	TGI (M19-MEL melanoma)	TGI (DLD-1 colon)	TGI (ACHN renal)	TGI (DMS 114 small cell lung)
CCN1CCC(O)(c2ccc(Cl)cc2)C(C(=O)c2ccc(Cl)cc2)C1 (stereo unspecified)	> 100 µM	95.9 µM	> 100 µM	> 100 µM	> 100 µM	> 100 µM	> 100 µM	> 100 µM	> 100 µM	> 100 µM	> 100 µM	> 100 µM	–
O=C1c2ccc(O)c(O)c2C(=O)c2c(O)ccc(O)c21	–	–	> 100 µM	> 100 µM	70.8 µM	78.5 µM	61.7 µM	> 100 µM	–	> 100 µM	> 100 µM	52.5 µM	32.6 µM
Nc1nc2c3nc(Nc4ccccc4)sc3nc(=O)n2c2sc(Nc3ccccc3)nc12	> 100 µM	> 100 µM	> 100 µM	> 100 µM	> 100 µM	> 100 µM	> 100 µM	> 100 µM	> 100 µM	> 100 µM	> 100 µM	> 100 µM	–
CCN(CC)C(=O)C(C)n1cc(C)c(=O)[nH]c1=O (stereo unspecified)	> 100 µM	–	> 100 µM	> 100 µM	> 100 µM	> 100 µM	> 100 µM	> 100 µM	> 100 µM	> 100 µM	–	> 100 µM	> 100 µM
COc1ccc(-c2cc3[nH]nc(N)c3c(=O)o2)cc1	> 100 µM	> 100 µM	> 100 µM	> 100 µM	> 100 µM	> 100 µM	> 100 µM	> 100 µM	> 100 µM	–	> 100 µM	> 100 µM	> 100 µM
COC(=O)c1c2cccccc-2c(Cc2c3cccccc-3c(C(=O)OC)c2O)c1O	> 100 µM	> 100 µM	> 100 µM	–	> 100 µM	> 100 µM	> 100 µM	> 100 µM	> 100 µM	> 100 µM	> 100 µM	> 100 µM	> 100 µM
CC(=O)O[C@H]1C(=O)[C@@]2(C)C(C(OC(=O)c3ccccc3)C3[C@@H](O)C(OC(=O)[C@@H](O)[C@H](NC(=O)c4ccccc4)c4ccc(C(F)(F)F)cc4)C(C)=C1C3(C)C)[C@]1(OC(C)=O)CO[C@@H]1C[C@@H]2O (stereo partly specified)	> 25 µM	–	> 25 µM	> 25 µM	> 25 µM	> 25 µM	> 25 µM	> 25 µM	–	> 25 µM	> 25 µM	> 25 µM	> 25 µM
Nn1c(Cc2ccc([N+](=O)[O-])cc2)n[nH]c1=O	> 100 µM	–	–	–	–	> 100 µM	–	> 100 µM	–	–	–	> 100 µM	–
CN(C)c1nc(Cl)c2c(-c3ccccc3)c(-c3ccccc3)oc2n1	> 100 µM	–	–	–	–	> 100 µM	–	> 100 µM	–	–	–	> 100 µM	–
Cn1c2ccccc2c(=O)c2cccc(C(=O)NC(CCC(N)=O)C(=O)O)c21 (stereo unspecified)	> 100 µM	–	–	–	–	> 100 µM	–	> 100 µM	–	–	–	> 100 µM	–
CO/N=C(\C)CCC#Cc1ccccc1C(=O)OC	> 10 µM	–	–	–	–	> 10 µM	–	> 10 µM	–	–	–	> 10 µM	–
COC(=O)C(CCSC)NC(=O)Cc1ccc(C(=O)c2ccccc2)cc1 (stereo unspecified)	> 100 µM	–	–	–	–	> 100 µM	–	> 100 µM	–	–	–	> 100 µM	–
COc1ccccc1C(=O)c1c(NCc2ccccc2)c(=O)c1=O	> 100 µM	–	–	–	–	> 100 µM	–	95 µM	–	–	–	> 100 µM	–
BrC(c1cccc2ccccc12)c1cccc2ccccc12	31.4 µM	–	–	–	–	44.7 µM	–	31.8 µM	–	–	–	52.3 µM	–
Cc1nc2c(=O)n(C)ncc2[nH]1	> 100 µM	–	–	–	–	> 100 µM	–	> 100 µM	–	–	–	> 100 µM	–
COI1NC(=O)c2ccccc21	> 100 µM	–	–	–	–	> 100 µM	–	> 100 µM	–	–	–	> 100 µM	–
